Test results: patent publication US9901592B2 (priority 2008, dated 2018)
Values after ≈ are worked out from the molar mass of the structure shown. Values joined by “and” are separate entries in the source; they are usually repeats but may differ in a detail not shown here. Identical values can stand only once. Like-named read-outs stand apart in the source and are kept apart here.

How the values were obtained:
S. pneumoniae [1] = assay: microbe, parasite or virus in culture; type: cell-based
N. meningitidis = assay: MIC, CLSI broth microdilution, invasive isolates; type: cell-based; settings: for MIC / MIC50 / MIC90: Neisseria meningitidis, 62 N. meningitidis isolates
Protocol: Example. […] Colonization of the nasopharynx (NP) by NM can lead to invasive meningococcal disease. Chemoprophylaxis is used to eradicate NP colonization and prevent transmission to nonimmune contacts. […] 62 isolates (91.9% blood culture) of NM were collected from 29 medical centers in North and South America and Europe (1997-2008). […] Serological identification was performed for serogroups (SGs) B, C, Y and W135.

M. hominis = type: cell-based
M. pneumoniae = assay: microbe, parasite or virus in culture; type: cell-based; settings: for MIC50 / MIC90: Mycoplasmoides pneumoniae
M. genitalium = type: cell-based; settings: M. genitalium (5 isolates)
U. parvum = assay: MIC testing in 10B broth (colour change); type: cell-based, Ureaplasma parvum; settings: for MIC Range / MIC50 / MIC90: U. parvum (10 isolates); for MIC50 / MIC90: Ureaplasma parvum; for MIC50: read-out: MIC50; for MIC90: read-out: MIC90
M. fermentans = type: cell-based; settings: M. fermentans (15 isolates); for MIC50 / MIC90: Mycoplasmopsis fermentans
U. urealyticum = assay: MIC testing in 10B broth (colour change); type: cell-based; settings: for MIC Range / MIC50 / MIC90: U. urealyticum (10 isolates)
S. aureus = type: cell-based
S. pneumoniae [2] = type: cell-based
pneumococci = assay: microbe, parasite or virus in culture; type: cell-based, S. pneumoniae
M. catarrhalis = assay: microbe, parasite or virus in culture; type: cell-based; settings: Moraxella catarrhalis
group A streptococci = assay: microbe, parasite or virus in culture; type: cell-based, S. pyogenes
streptococci = assay: organism not typed; type: cell-based
[3] = Streptococcus pneumoniae, pneumococci, L4 mutations (27)

SMILES: CO/N=C(\C(=O)N[C@@H]1C(=O)N2C(C(=O)O)=C(CSc3nc(=O)c(=O)[nH]n3C)CS[C@H]12)c1csc(N)n1 [CRO, ceftriaxone]
- nonsusceptibility (S. pneumoniae [1]): 33.3%
- % Susc. (N. meningitidis; CLSI (M100-S19, 2009) criteria): 100.0%
- MIC (N. meningitidis): ≤ 0.015 µg/mL
- MIC50 (N. meningitidis): ≤ 0.015 µg/mL
- MIC90 (N. meningitidis): ≤ 0.015 µg/mL

SMILES: C[C@H]1c2cccc(O)c2C(=O)C2=C(O)[C@]3(O)C(=O)C(C(N)=O)=C(O)[C@@H](N(C)C)[C@@H]3[C@@H](O)[C@@H]21 [Doxycycline, doxycycline]
- MIC Range (M. hominis; M. hominis (13 isolates)): ≦0.008-0.016 μg/mL
- MIC50 (M. hominis; Metamycoplasma hominis): 0.125 µg/mL (≈ 0.281 µM)
- MIC90 (M. hominis; Metamycoplasma hominis): 8 µg/mL (≈ 18 µM)
- MIC (M. hominis; Metamycoplasma hominis, 2 doxycycline-resistant M. hominis isolates): 8 to 16 µg/mL (≈ 18 to 36 µM)
- MIC Range (M. pneumoniae): 0.016 to 0.25 µg/mL
- MIC50 (M. pneumoniae): 0.125 µg/mL (≈ 0.281 µM)
- MIC90 (M. pneumoniae): 0.25 µg/mL (≈ 0.563 µM)
- MIC Range (M. genitalium): ≦0.008-0.031 μg/mL
- MIC (U. parvum; 7 doxycycline-resistant Ureaplasma parvum): 4 to 16 µg/mL (≈ 9 to 36 µM)
- MIC Range (U. parvum): 0.031 to 16 µg/mL
- MIC50 (U. parvum): 8 µg/mL (≈ 18 µM)
- MIC90 (U. parvum): 16 µg/mL (≈ 36 µM)
- MIC Range (M. fermentans): 0.016 to 0.5 µg/mL
- MIC50 (M. fermentans): 0.125 µg/mL (≈ 0.281 µM)
- MIC90 (M. fermentans): 0.5 µg/mL (≈ 1.13 µM)
- MIC Range (U. urealyticum): 0.031 to 32 µg/mL
- MIC (U. urealyticum; Ureaplasma urealyticum, 4 doxycycline-resistant U. urealyticum): 4 to 32 µg/mL (≈ 9 to 72 µM)
- MIC50 (U. urealyticum; Ureaplasma urealyticum): 1 µg/mL (≈ 2.25 µM)
- MIC90 (U. urealyticum; Ureaplasma urealyticum): 16 µg/mL (≈ 36 µM)

SMILES: CC[C@H]1OC(=O)[C@H](C)[C@@H](OC2CC(C)(OC)C(O)C(C)O2)[C@H](C)[C@@H](OC2OC(C)CC(N(C)C)C2O)[C@@](C)(OC)C[C@@H](C)C(=O)[C@H](C)[C@H]2N(CCCCn3cc(-c4ccccn4)nn3)C(=O)O[C@]12C (stereo partly drawn) [Entry 20a]
- MIC (S. aureus): 8 µg/mL (≈ 8.22 µM)
- MIC (S. pneumoniae [2]): ≦0.0625 μg/mL

SMILES: CC[C@H]1OC(=O)[C@H](C)[C@@H](OC2CC(C)(OC)C(O)C(C)O2)[C@H](C)[C@@H](OC2OC(C)CC(N(C)C)C2O)[C@@](C)(OC)C[C@@H](C)C(=O)[C@H](C)[C@H]2N(CCCCn3cc(-c4cccnc4)nn3)C(=O)O[C@]12C (stereo partly drawn) [Entry 20b]
- MIC (S. aureus): 8 µg/mL (≈ 8.22 µM)
- MIC (S. pneumoniae [2]): ≦0.0625 μg/mL

SMILES: CC[C@H]1OC(=O)[C@H](C)[C@@H](OC2CC(C)(OC)C(O)C(C)O2)[C@H](C)[C@@H](OC2OC(C)CC(N(C)C)C2O)[C@@](C)(OC)C[C@@H](C)C(=O)[C@H](C)[C@H]2N(CCCCn3cc(COc4c(Cl)cccc4Cl)nn3)C(=O)O[C@]12C (stereo partly drawn) [Entry 20d]
- MIC (S. aureus): 8 µg/mL (≈ 7.47 µM)
- MIC (S. pneumoniae [2]): ≦0.0625 μg/mL

SMILES: CC[C@H]1OC(=O)[C@H](C)[C@@H](OC2CC(C)(OC)C(O)C(C)O2)[C@H](C)[C@@H](OC2OC(C)CC(N(C)C)C2O)[C@@](C)(OC)C[C@@H](C)C(=O)[C@H](C)[C@H]2N(CCCCn3cc(Cn4nnc5ccccc54)nn3)C(=O)O[C@]12C (stereo partly drawn) [Entry 20e]
- MIC (S. aureus): 8 µg/mL (≈ 7.79 µM)
- MIC (S. pneumoniae [2]): ≦0.0625 μg/mL

SMILES: CC[C@H]1OC(=O)[C@@](C)(F)C(=O)[C@H](C)[C@@H](OC2OC(C)CC(N(C)C)C2O)[C@@](C)(OC)C[C@@H](C)C(=O)[C@H](C)[C@H]2N(CCCCn3cc(-c4ccccn4)nn3)C(=O)O[C@]12C (stereo partly drawn) [Entry 23a]
- MIC (S. pneumoniae [2]): ≦0.125 μg/mL

SMILES: CC[C@H]1OC(=O)[C@H](C)[C@@H](O[C@H]2C[C@@](C)(OC)[C@@H](O)[C@H](C)O2)[C@H](C)[C@@H](O[C@@H]2O[C@H](C)C[C@H](N(C)C)[C@H]2O)[C@](C)(O)C[C@@H](C)C(=O)[C@H](C)[C@@H](O)[C@]1(C)O [Erythromycin, erythromycin A]
- MIC90 (S. pneumoniae [1]; Streptococcus pneumoniae): > 32 µg/mL
- MIC50 (pneumococci; [3]): > 64 µg/mL
- MIC90 (pneumococci; [3]): > 64 µg/mL
- MIC90 (M. catarrhalis): 0.25 µg/mL (≈ 0.341 µM)
- MIC (N. meningitidis): 0.03 to 0.5 µg/mL (≈ 0.0409 to 0.681 µM)
- MIC50 (N. meningitidis): 0.12 µg/mL (≈ 0.164 µM)
- MIC90 (N. meningitidis): 0.25 µg/mL (≈ 0.341 µM)

SMILES: C[C@H]1COc2c(N3CCN(C)CC3)c(F)cc3c(=O)c(C(=O)O)cn1c23 [Levo]
- MIC50 (pneumococci): 1 µg/mL (≈ 2.77 µM)
- MIC Range (pneumococci): 0.06 to 32 µg/mL
- MIC range (pneumococci): 1 to 32 µg/mL
- MIC50 (group A streptococci): 0.5 µg/mL (≈ 1.38 µM)
- MIC90 (group A streptococci): 0.5 µg/mL and 1 µg/mL
- MIC Range (group A streptococci): 0.5 to 1 µg/mL and 0.5 to 2 µg/mL

SMILES: C[C@H]1COc2c(N3CCN(C)CC3)c(F)cc3c(=O)c(C(=O)O)cn1c23 [Levofloxacin, levofloxacin]
- MIC Range (M. hominis; M. hominis (13 isolates)): 0.125 to 0.5 µg/mL
- MIC50 (M. hominis; Metamycoplasma hominis, M. hominis (13 isolates), read-out: MIC50): 0.25 µg/mL (≈ 0.692 µM)
- MIC90 (M. hominis; Metamycoplasma hominis, M. hominis (13 isolates), read-out: MIC90): 0.5 µg/mL (≈ 1.38 µM)
- MIC50 (pneumococci; [3]): 1 µg/mL (≈ 2.77 µM)
- MIC90 (pneumococci; [3]): 2 µg/mL (≈ 5.53 µM)
- MIC (pneumococci; Streptococcus pneumoniae, read-out: MIC range, pneumococci, L4 mutations (27)): 0.5 to 16 µg/mL (≈ 1.38 to 44.3 µM)
- MIC Range (M. pneumoniae): 0.125 to 1 µg/mL
- MIC50 (M. pneumoniae): 0.5 µg/mL (≈ 1.38 µM)
- MIC90 (M. pneumoniae): 0.5 µg/mL (≈ 1.38 µM)
- MIC Range (M. genitalium): 0.125 to 1 µg/mL
- MIC Range (U. parvum): 0.125 to 2 µg/mL
- MIC50 (U. parvum): 0.5 µg/mL (≈ 1.38 µM)
- MIC90 (U. parvum): 2 µg/mL (≈ 5.53 µM)
- MIC Range (M. fermentans): ≦0.008-0.25 μg/mL
- MIC50 (M. fermentans): 0.031 µg/mL (≈ 0.0858 µM)
- MIC90 (M. fermentans): 0.125 µg/mL (≈ 0.346 µM)
- MIC90 (group A streptococci): 0.5 µg/mL (≈ 1.38 µM)
- MIC Range (group A streptococci): 0.5 to 1 µg/mL and 0.5 µg/mL
- MIC50 (group A streptococci; Streptococcus pyogenes): 0.5 µg/mL (≈ 1.38 µM)
- MIC90 (group A streptococci; Streptococcus pyogenes): 1 µg/mL (≈ 2.77 µM)
- MIC (group A streptococci; Streptococcus pyogenes, read-out: MIC Range): 0.5 to 2 µg/mL (≈ 1.38 to 5.53 µM)
- MIC Range (U. urealyticum): 0.5 to 2 µg/mL
- MIC50 (U. urealyticum; Ureaplasma urealyticum): 0.5 µg/mL (≈ 1.38 µM)
- MIC90 (U. urealyticum; Ureaplasma urealyticum): 1 µg/mL (≈ 2.77 µM)
- MIC50 (streptococci): 1 µg/mL (≈ 2.77 µM)
- MIC90 (streptococci): 1 µg/mL (≈ 2.77 µM)
- MIC 90% (streptococci): 2 µg/mL (≈ 5.53 µM)
- % Res. (N. meningitidis; CLSI (M100-S19, 2009) criteria): 0.0%
- % Susc. (N. meningitidis; CLSI (M100-S19, 2009) criteria): 100.0%
- MIC (N. meningitidis): 0.008 to 0.015 µg/mL (≈ 0.0221 to 0.0415 µM)
- MIC50 (N. meningitidis): ≤ 0.008 µg/mL
- MIC90 (N. meningitidis): ≤ 0.008 µg/mL
